Data from PubChem BioAssay (NCI).
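Assay format: 96-well plates, 48-hour exposure. At the TGI there is no net growth.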

Assays:
Experiment in all cases: DTP human tumour cell line panel, 48 h
[1] = test system: A498 renal
[2] = test system: A549 NSCLC
[3] = test system: ACHN renal
[4] = test system: CAKI-1 renal
[5] = test system: CCRF-CEM leukemia
[6] = test system: COLO 205 colon
[7] = test system: DLD-1 colon
[8] = test system: DMS 114 small cell lung
[9] = test system: DMS 273 small cell lung
[10] = test system: EKVX NSCLC
[11] = test system: HCC-2998 colon
[12] = test system: HCT-116 colon
[13] = test system: HCT-15 colon
[14] = test system: HL-60(TB) leukemia
[15] = test system: HOP-62 NSCLC
[16] = test system: HOP-92 NSCLC
[17] = test system: HT29 colon
[18] = test system: IGROV1 ovarian
[19] = test system: K-562 leukemia
[20] = test system: KM12 colon
[21] = test system: KM20L2 colon
[22] = test system: LXFL 529 NSCLC
[23] = test system: M14 melanoma
[24] = test system: M19-MEL melanoma
[25] = test system: MALME-3M melanoma
[26] = test system: MOLT-4 leukemia
[27] = test system: NCI-H226 lung
[28] = test system: NCI-H23 lung
[29] = test system: NCI-H460 lung
[30] = test system: NCI-H522 lung
[31] = test system: OVCAR-3 ovarian
[32] = test system: OVCAR-4 ovarian
[33] = test system: OVCAR-5 ovarian
[34] = test system: OVCAR-8 ovarian
[35] = test system: RPMI-8226 leukemia
[36] = test system: SF-268 CNS
[37] = test system: SF-295 CNS
[38] = test system: SF-539 CNS
[39] = test system: SK-MEL-2 melanoma
[40] = test system: SK-MEL-28 melanoma
[41] = test system: SK-MEL-5 melanoma
[42] = test system: SK-OV-3 ovarian
[43] = test system: SN12C renal
[44] = test system: SNB-19 CNS
[45] = test system: SNB-75 CNS
[46] = test system: SNB-78 CNS
[47] = test system: SR leukemia
[48] = test system: SW-620 colon
[49] = test system: TK-10 renal
[50] = test system: U251 CNS
[51] = test system: UACC-257 melanoma
[52] = test system: UACC-62 melanoma
[53] = test system: UO-31 renal
[54] = test system: XF 498 CNS
[55] = test system: 786-0 renal
[56] = test system: HOP-18 NSCLC
[57] = test system: LOX IMVI melanoma
[58] = test system: RXF 393 renal

SMILES: CO/C(=N\N=Cc1ccccc1)c1ccncc1
- TGI [1]: > 100 µM
- TGI [2]: > 100 µM
- TGI [3]: > 100 µM
- TGI [4]: > 100 µM
- TGI [5]: > 100 µM
- TGI [6]: > 100 µM
- TGI [7]: > 100 µM
- TGI [8]: > 100 µM
- TGI [9]: > 100 µM
- TGI [10]: > 100 µM
- TGI [11]: > 100 µM
- TGI [12]: > 100 µM
- TGI [13]: > 100 µM
- TGI [14]: > 100 µM
- TGI [15]: > 100 µM
- TGI [16]: > 100 µM
- TGI [17]: > 100 µM
- TGI [18]: > 100 µM
- TGI [19]: > 100 µM
- TGI [20]: > 100 µM
- TGI [21]: > 100 µM
- TGI [22]: > 100 µM
- TGI [23]: > 100 µM
- TGI [24]: > 100 µM
- TGI [25]: > 100 µM
- TGI [26]: > 100 µM
- TGI [27]: 97.1 µM
- TGI [28]: > 100 µM
- TGI [29]: > 100 µM
- TGI [30]: > 100 µM
- TGI [31]: > 100 µM
- TGI [32]: > 100 µM
- TGI [33]: > 100 µM
- TGI [34]: > 100 µM
- TGI [35]: > 100 µM
- TGI [36]: > 100 µM
- TGI [37]: > 100 µM
- TGI [38]: > 100 µM
- TGI [39]: > 100 µM
- TGI [40]: > 100 µM
- TGI [41]: > 100 µM
- TGI [42]: > 100 µM
- TGI [43]: > 100 µM
- TGI [44]: > 100 µM
- TGI [45]: > 100 µM
- TGI [46]: > 100 µM
- TGI [47]: > 100 µM
- TGI [48]: > 100 µM
- TGI [49]: > 100 µM
- TGI [50]: > 100 µM
- TGI [51]: > 100 µM
- TGI [52]: > 100 µM
- TGI [53]: > 100 µM
- TGI [54]: > 100 µM

SMILES: Cc1ccccc1N(CC(=O)O)S(=O)(=O)c1ccccc1
- TGI [55]: > 100 µM
- TGI [1]: > 100 µM
- TGI [2]: > 100 µM
- TGI [3]: > 100 µM
- TGI [4]: > 100 µM
- TGI [5]: > 100 µM
- TGI [6]: > 100 µM
- TGI [7]: > 100 µM
- TGI [9]: > 100 µM
- TGI [10]: > 100 µM
- TGI [11]: > 100 µM
- TGI [13]: > 100 µM
- TGI [14]: > 100 µM
- TGI [56]: > 100 µM
- TGI [16]: > 100 µM
- TGI [17]: > 100 µM
- TGI [18]: > 100 µM
- TGI [19]: > 100 µM
- TGI [20]: > 100 µM
- TGI [21]: > 100 µM
- TGI [57]: > 100 µM
- TGI [22]: > 100 µM
- TGI [23]: > 100 µM
- TGI [24]: > 100 µM
- TGI [25]: > 100 µM
- TGI [26]: > 100 µM
- TGI [27]: > 100 µM
- TGI [28]: > 100 µM
- TGI [29]: > 100 µM
- TGI [30]: > 100 µM
- TGI [31]: > 100 µM
- TGI [32]: > 100 µM
- TGI [33]: > 100 µM
- TGI [34]: > 100 µM
- TGI [35]: > 100 µM
- TGI [58]: > 100 µM
- TGI [36]: > 100 µM
- TGI [37]: > 100 µM
- TGI [38]: > 100 µM
- TGI [39]: > 100 µM
- TGI [40]: > 100 µM
- TGI [41]: > 100 µM
- TGI [42]: > 100 µM
- TGI [43]: > 100 µM
- TGI [44]: > 100 µM
- TGI [45]: > 100 µM
- TGI [48]: > 100 µM
- TGI [49]: > 100 µM
- TGI [50]: > 100 µM
- TGI [51]: > 100 µM
- TGI [52]: > 100 µM
- TGI [53]: > 100 µM
- TGI [54]: > 100 µM

SMILES: Cc1cc([N+](=O)[O-])ccc1Sc1c2ccccc2nc2ccccc12
- TGI [55]: 55.5 µM
- TGI [1]: > 100 µM
- TGI [2]: > 100 µM
- TGI [3]: > 100 µM
- TGI [4]: 97.3 µM
- TGI [5]: 79.5 µM
- TGI [6]: > 100 µM
- TGI [7]: > 100 µM
- TGI [9]: > 100 µM
- TGI [10]: > 100 µM
- TGI [11]: 56.1 µM
- TGI [12]: 66.6 µM
- TGI [13]: 57.2 µM
- TGI [14]: 49.1 µM
- TGI [56]: > 100 µM
- TGI [15]: > 100 µM
- TGI [16]: 98.2 µM
- TGI [18]: > 100 µM
- TGI [19]: > 100 µM
- TGI [20]: 32.7 µM
- TGI [21]: 89.8 µM
- TGI [57]: 38.6 µM
- TGI [22]: 45.5 µM
- TGI [23]: > 100 µM
- TGI [25]: > 100 µM
- TGI [26]: 73.1 µM
- TGI [27]: > 100 µM
- TGI [28]: 79.2 µM
- TGI [29]: > 100 µM
- TGI [30]: 38.9 µM
- TGI [31]: > 100 µM
- TGI [32]: > 100 µM
- TGI [33]: > 100 µM
- TGI [34]: 84.4 µM
- TGI [58]: > 100 µM
- TGI [36]: > 100 µM
- TGI [37]: > 100 µM
- TGI [38]: 56.5 µM
- TGI [39]: 55.9 µM
- TGI [40]: > 100 µM
- TGI [41]: > 100 µM
- TGI [42]: > 100 µM
- TGI [43]: 93.3 µM
- TGI [44]: > 100 µM
- TGI [45]: > 100 µM
- TGI [47]: 70.1 µM
- TGI [48]: > 100 µM
- TGI [49]: > 100 µM
- TGI [50]: 78.9 µM
- TGI [51]: 71.3 µM
- TGI [52]: 66.8 µM
- TGI [53]: > 100 µM
- TGI [54]: 50 µM

SMILES: COC(=O)C1CCC2(C)[C@H](CCC3O[C@]32C)[C@@]1(C)CC(=O)c1ccoc1 (some centres not stated)
- TGI [55]: > 100 µM
- TGI [1]: > 100 µM
- TGI [2]: > 100 µM
- TGI [3]: > 100 µM
- TGI [4]: > 100 µM
- TGI [5]: > 100 µM
- TGI [6]: > 100 µM
- TGI [7]: > 100 µM
- TGI [8]: > 100 µM
- TGI [9]: > 100 µM
- TGI [10]: > 100 µM
- TGI [11]: > 100 µM
- TGI [12]: > 100 µM
- TGI [13]: > 100 µM
- TGI [14]: > 100 µM
- TGI [15]: > 100 µM
- TGI [18]: > 100 µM
- TGI [19]: > 100 µM
- TGI [20]: > 100 µM
- TGI [21]: > 100 µM
- TGI [57]: > 100 µM
- TGI [22]: > 100 µM
- TGI [23]: > 100 µM
- TGI [24]: > 100 µM
- TGI [25]: > 100 µM
- TGI [26]: > 100 µM
- TGI [27]: > 100 µM
- TGI [28]: > 100 µM
- TGI [29]: > 100 µM
- TGI [30]: > 100 µM
- TGI [31]: > 100 µM
- TGI [32]: > 100 µM
- TGI [33]: > 100 µM
- TGI [34]: > 100 µM
- TGI [35]: > 100 µM
- TGI [58]: > 100 µM
- TGI [36]: > 100 µM
- TGI [37]: > 100 µM
- TGI [38]: > 100 µM
- TGI [40]: > 100 µM
- TGI [41]: > 100 µM
- TGI [42]: > 100 µM
- TGI [43]: > 100 µM
- TGI [44]: > 100 µM
- TGI [46]: > 100 µM
- TGI [47]: > 100 µM
- TGI [48]: > 100 µM
- TGI [49]: > 100 µM
- TGI [50]: > 100 µM
- TGI [51]: > 100 µM
- TGI [52]: > 100 µM
- TGI [53]: > 100 µM
- TGI [54]: > 100 µM

SMILES: O=C(Nc1ccc(Cl)c(Cl)c1)C(=O)C(C(=O)c1ccccc1F)C1OC(=O)c2ccccc21 (configuration not stated)
- TGI [1]: > 100 µM
- TGI [2]: 81.4 µM
- TGI [3]: > 100 µM
- TGI [4]: 80.2 µM
- TGI [5]: 50.9 µM
- TGI [6]: 33.1 µM
- TGI [7]: > 100 µM
- TGI [8]: 46.4 µM
- TGI [9]: 46.9 µM
- TGI [10]: 68.6 µM
- TGI [11]: 32.7 µM
- TGI [12]: 30.4 µM
- TGI [13]: 35.5 µM
- TGI [14]: 41.2 µM
- TGI [15]: 76.2 µM
- TGI [16]: > 100 µM
- TGI [17]: 88.8 µM
- TGI [18]: > 100 µM
- TGI [19]: > 100 µM
- TGI [20]: 37 µM
- TGI [21]: 55.1 µM
- TGI [57]: 50.4 µM
- TGI [22]: > 100 µM
- TGI [23]: 34.3 µM
- TGI [24]: 41.7 µM
- TGI [26]: > 100 µM
- TGI [27]: 43.7 µM
- TGI [28]: 75.9 µM
- TGI [29]: 43.8 µM
- TGI [30]: 27.3 µM
- TGI [32]: > 100 µM
- TGI [33]: > 100 µM
- TGI [34]: 28.5 µM
- TGI [35]: 55.9 µM
- TGI [58]: 41.8 µM
- TGI [36]: 92.1 µM
- TGI [37]: > 100 µM
- TGI [38]: 28.1 µM
- TGI [39]: 38.2 µM
- TGI [40]: 75.2 µM
- TGI [41]: 35.9 µM
- TGI [42]: 69.9 µM
- TGI [43]: 60.2 µM
- TGI [44]: 47.8 µM
- TGI [45]: 58.8 µM
- TGI [46]: 73.1 µM
- TGI [47]: > 100 µM
- TGI [48]: 62.3 µM
- TGI [49]: 93.8 µM
- TGI [50]: 28.1 µM
- TGI [51]: > 100 µM
- TGI [52]: 28.3 µM
- TGI [53]: 37.2 µM
- TGI [54]: 79.5 µM
